From paper PMC10590377, “Synthesis of novel coumarin-based thiosemicarbazones and their implications in diabetic management via in-vitro and in-silico approaches” (Scientific Reports, 2023)
Where “and” joins values, the source holds several entries; their conditions need not be identical. Equal values may be shown once. Entries after “also recorded” stand apart in the source; their conditions may differ.

Columns and labels:
α-glucosidase [1] = test: In-vitro α-glucosidase inhibition assay (4-nitro phenyl α-D-glucopyranoside substrate); assay type: biochemical; details: for Percent inhibition (0.5 mM): test samples 0.5 mM; for IC50: triplicate, ± SEM
Description: The most recent investigations were carried out utilizing the techniques we previously discussed. The enzyme and substrate were dissolved in phosphate buffer (pH 6.8) which also served as the reaction buffer for the experiments. A 96-well plate was used for the following ingredients: enzyme 2 U/2 mL, test samples (0.5 mM), 20 µL/well, enzyme 20 µL/well, and 135 µL/well reaction buffer. The plate was incubated for 15 min at 37 °C. Changes in absorbance brought on by substrate breakdown were measured at 400 nm for 30 min after each well-received 25 µL of 4-nitro phenyl α-D-glucopyranoside.
The formula below was used to compute the percent inhibition of all drugs tested.1 the%Inhibition=100-O.Dtestcompound/O.Dcontrol×100
EZ-FIT (Perrella Scientific, Inc., USA) to calculate the IC50 for all antidiabetic agents under the study.

α-glucosidase [2] = test: Kinetic studies of α-glucosidase inhibition (Lineweaver–Burk, secondary replot, Dixon plots); assay type: biochemical; details: for type / mode of inhibition: Lineweaver–Burk plots; for Ki: secondary replot of Lineweaver–Burk plots, reconfirmed by Dixon plots
From the text: In such types of inhibition, the Vmax of the enzyme remains constant, while the Km value increases (Fig. 3). Lineweaver–Burk plots were used to determine the type of inhibition of the given compounds, in which the reciprocal of the reaction rate was plotted vs. the reciprocal of substrate concentrations to investigate their effect on the Km and Vmax of the α-glucosidase (Fig. 3). To determine the Ki values for all compounds evaluated for kinetics study secondary replot of Lineweaver–Burk plots were applied by taking the slope of each line in Lineweaver–Burk plots vs. different concentrations of the tested compounds. Further Dixon plots were used for the reconfirmation of Ki values (Fig. 3).
Figure 3 The inhibitory mode of 3c, 3g and 3i against α-glucosidase enzyme (A) Line weaver-Burk plot of reciprocal of rate of reaction (velocities) vs reciprocal of substrate p-nitro phenyl-α-D-glucopyranoside in the absence of (filled black square), and in the presence of 7.00 (filled black circle), 3.50 (open circle) and 1.75 µM (open square) of 3c, 3g and 3i. (B) Secondary replot of Line weaver-Burk plot between the slopes of each line on Line weaver-Burk plot against different concentrations of 3c, 3g and 3i. (C) Dixon plot of reciprocal of rate of reaction (velocities) vs different concentrations of 3c, 3g and 3i.

| SMILES | Percent inhibition (0.5 mM) (α-glucosidase [1]) | IC50 (α-glucosidase [1]) | type / mode of inhibition (α-glucosidase [2]) | Ki (α-glucosidase [2]) |
| --- | --- | --- | --- | --- |
| O=c1oc2ccccc2c(Cl)c1/C=N/NC(=S)NC1CCCCC1 [Compound 3f, (E)-2-((4-chloro-2-oxo-2H-chromen-3-yl)methylene)-N-cyclohexylhydrazine-1-carbothioamide] | 91.70% | 11.2 ± 0.24 µM |  |  |
| COc1cccc(NC(=S)N/N=C/c2c(Cl)c3ccccc3oc2=O)c1 [Compound 3b, (E)-2-((4-chloro-2-oxo-2H-chromen-3-yl)methylene)-N-(3-methoxyphenyl)hydrazine-1-carbothioamide] | 94.67% | 6.1 ± 0.11 µM |  |  |
| O=c1oc2ccccc2c(Cl)c1/C=N/NC(=S)NCc1ccccc1 [Compound 3d, (E)-N-benzyl-2-((4-chloro-2-oxo-2H-chromen-3-yl)methylene) hydrazine-1-carbothioamide] | 91.20% | 12.6 ± 0.16 µM |  |  |
| Cc1cccc(C)c1NC(=S)N/N=C/c1c(Cl)c2ccccc2oc1=O [Compound 3j, (E)-2-((4-chloro-2-oxo-2H-chromen-3-yl)methylene)-N-(2,6-dimethylphenyl) hydrazine-1-carbothioamide] | 91.29% | 22.1 ± 0.37 µM |  |  |
| O=c1oc2ccccc2c(Cl)c1/C=N/NC(=S)NCCc1ccccc1 [Compound 3g, (E)-2-((4-chloro-2-oxo-2H-chromen-3-yl)methylene)-N-phenethylhydrazine-1-carbothioamide] | 95.15% | 2.33 ± 0.04 µM | competitive inhibitor | 1.33 ± 0.0027 µM |
| COc1ccc(NC(=S)N/N=C/c2c(Cl)c3ccccc3oc2=O)cc1 [Compound 3h, (E)-2-((4-chloro-2-oxo-2H-chromen-3-yl)methylene)-N-(4-methoxyphenyl) hydrazine-1-carbothioamide] | 94.63% | 3.4 ± 0.08 µM |  |  |
| O=c1oc2ccccc2c(Cl)c1/C=N/NC(=S)Nc1ccccc1F [Compound 3l, (E)-2-((4-chloro-2-oxo-2H-chromen-3-yl)methylene)-N-(2-fluorophenyl) hydrazine-1-carbothioamide] | 92.08% | 8.84 ± 0.16 µM |  |  |
| O=c1oc2ccccc2c(Cl)c1/C=N/NC(=S)Nc1ccc([N+](=O)[O-])cc1 [Compound 3i, (E)-2-((4-chloro-2-oxo-2H-chromen-3-yl)methylene)-N-(4-nitrophenyl) hydrazine-1-carbothioamide] | 95.30% | 2.13 ± 0.04 µM | competitive inhibitor | 1.51 ± 0.0086 µM |
| O=c1oc2ccccc2c(Cl)c1/C=N/NC(=S)Nc1cc(Cl)c(Cl)cc1Cl [Compound 3c, (E)-2-((4-chloro-2-oxo-2H-chromen-3-yl)methylene)-N-(2,4,5-trichlorophenyl) hydrazine-1-carbothioamide] | 94.68% | 2.57 ± 0.03 µM | competitive inhibitor; also recorded: concentration-dependent inhibition | 1.62 ± 0.041 µM |
| CNC(=S)N/N=C/c1c(Cl)c2ccccc2oc1=O [Compound 3m, (E)-2-((4-chloro-2-oxo-2H-chromen-3-yl)methylene)-N-methylhydrazine-1-carbothioamide] | 91.37% | 24.2 ± 0.31 µM |  |  |
| O=c1oc2ccccc2c(Cl)c1/C=N/NC(=S)Nc1ccccc1 [Compound 3a, (E)-2-((4-chloro-2-oxo-2H-chromen-3-yl)methylene)-N-phenylhydrazine-1-carbothioamide] | 92.45% | 10 µM and 10.1 µM |  |  |
| C[C@H]1O[C@H](O[C@H]2[C@H](O)[C@@H](O)[C@@H](O[C@H]3[C@H](O)[C@@H](O)C(O)O[C@@H]3CO)O[C@@H]2CO)[C@H](O)[C@@H](O)[C@@H]1N[C@H]1C=C(CO)[C@@H](O)[C@H](O)[C@H]1O (stereo partly drawn) [acarbose, reference compound] | 59.37% |  |  |  |
| Cc1ccc(NC(=S)N/N=C/c2c(Cl)c3ccccc3oc2=O)cc1 [Compound 3e, (E)-2-((4-chloro-2-oxo-2H-chromen-3-yl)methylene)-N-(p-tolyl) hydrazine-1-carbothioamide] | 92.75% | 9.11 ± 0.2 µM |  |  |
| O=c1oc2ccccc2c(Cl)c1/C=N/NC(=S)Nc1cccc(Cl)c1Cl [Compound 3k, (E)-2-((4-chloro-2-oxo-2H-chromen-3-yl)methylene)-N-(2,3-dichlorophenyl) hydrazine-1-carbothioamide] | 92.54% | 4.22 ± 0.1 µM |  |  |
